{"source": "patent US10597380B2", "about": "“Pyridazinone-based broad spectrum anti-influenza inhibitors” (Hoffmann-La Roche Inc., priority 2017, dated 2020)", "data": [{"test_system": "Influenza A/WSN/33-Luciferase virus", "assay": "microbe, parasite or virus in culture", "type": "cell-based", "settings": "A549, 72 h, luciferase signal three days later, read-out: IC50 antiviral activity (Luciferase reporter assay)", "units": {"IC50": "nM"}, "values": [{"smiles": "Cn1cccc(Nc2nn(-c3ccc(OC(F)(F)F)cc3)c(=O)c3c2CCN(CCO)C3)c1=O", "note": "[Example 147, 6-(2-Hydroxyethyl)-1-[(1-methyl-2-oxo-3-pyridyl)amino]-3-[4-(trifluoromethoxy)phenyl]-7,8-dihydro-5H-pyrido[3,4-d]pyridazin-4-one]", "IC50": 76}, {"smiles": "CC(=O)N1CCc2c(Nc3cccn(C)c3=O)nn(-c3ccc(OC(F)(F)F)cc3)c(=O)c2C1", "note": "[Example 148, 6-Acetyl-1-[(1-methyl-2-oxo-3-pyridyl)amino]-3-[4-(trifluoromethoxy)phenyl]-7,8-dihydro-5H-pyrido[3,4-d]pyridazin-4-one]", "IC50": 19}, {"smiles": "CC(=O)N1CCc2c(c(Nc3cccn(C)c3=O)nn(-c3ccc(OC(F)(F)F)cc3)c2=O)C1", "note": "[Example 149, 6-Acetyl-4-[(1-methyl-2-oxo-3-pyridyl)amino]-2-[4-(trifluoromethoxy)phenyl]-7,8-dihydro-5H-pyrido[3,4-d]pyridazin-1-one]", "IC50": 71}, {"smiles": "CC(=O)N1CCc2c(Nc3cncn(C)c3=O)nn(-c3ccc(OC(F)(F)F)cc3)c(=O)c2C1", "note": "[Example 150, 6-Acetyl-1-[(1-methyl-6-oxo-pyrimidin-5-yl)amino]-3-[4-(trifluoromethoxy)phenyl]-7,8-dihydro-5H-pyrido[3,4-d]pyridazin-4-one]", "IC50": 104}, {"smiles": "CC(=O)N1CCc2c(c(Nc3cncn(C)c3=O)nn(-c3ccc(OC(F)(F)F)cc3)c2=O)C1", "note": "[Example 151, 6-Acetyl-4-[(1-methyl-6-oxo-pyrimidin-5-yl)amino]-2-[4-(trifluoromethoxy)phenyl]-7,8-dihydro-5H-pyrido[3,4-d]pyridazin-1-one]", "IC50": 372}, {"smiles": "COC(=O)N1CCc2c(c(Nc3cccn(C)c3=O)nn(-c3ccc(OC(F)(F)F)cc3)c2=O)C1", "note": "[Example 152, Methyl 4-[(1-methyl-2-oxo-3-pyridyl)amino]-1-oxo-2-[4-(trifluoromethoxy)phenyl]-7,8-dihydro-5H-pyrido[3,4-d]pyridazine-6-carboxylate]", "IC50": 32}, {"smiles": "COC(=O)N1CCc2c(Nc3cccn(C)c3=O)nn(-c3ccc(OC(F)(F)F)cc3)c(=O)c2C1", "note": "[Example 153, Methyl 1-[(1-methyl-2-oxo-3-pyridyl)amino]-4-oxo-3-[4-(trifluoromethoxy)phenyl]-7,8-dihydro-5H-pyrido[3,4-d]pyridazine-6-carboxylate]", "IC50": 61}, {"smiles": "Cn1cccc(Nc2nn(-c3ccc(OC(F)(F)F)cc3)c(=O)c3c2CN(C=O)CC3)c1=O", "note": "[Example 154, 4-[(1-Methyl-2-oxo-3-pyridyl)amino]-1-oxo-2-[4-(trifluoromethoxy)phenyl]-7,8-dihydro-5H-pyrido[3,4-d]pyridazine-6-carbaldehyde]", "IC50": 144}, {"smiles": "Cn1cccc(Nc2nn(-c3ccc(OC(F)(F)F)cc3)c(=O)c3c2CCN(C=O)C3)c1=O", "note": "[Example 155, 1-[(1-Methyl-2-oxo-3-pyridyl)amino]-4-oxo-3-[4-(trifluoromethoxy)phenyl]-7,8-dihydro-5H-pyrido[3,4-d]pyridazine-6-carbaldehyde]", "IC50": 86}, {"smiles": "Cn1cccc(Nc2nn(-c3ccc(OC(F)(F)F)cc3)c(=O)c3c2CCN(S(C)(=O)=O)C3)c1=O", "note": "[Example 156, 1-[(1-Methyl-2-oxo-3-pyridyl)amino]-6-methylsulfonyl-3-[4-(trifluoromethoxy)phenyl]-7,8-dihydro-5H-pyrido[3,4-d]pyridazin-4-one]", "IC50": 266}, {"smiles": "Cn1cccc(Nc2nn(-c3ccc(OC(F)(F)F)cc3)c(=O)c3c2CN(S(C)(=O)=O)CC3)c1=O", "note": "[Example 157, 4-[(1-Methyl-2-oxo-3-pyridyl)amino]-6-methylsulfonyl-2-[4-(trifluoromethoxy)phenyl]-7,8-dihydro-5H-pyrido[3,4-d]pyridazin-1-one]", "IC50": 167}, {"smiles": "CCN1CCc2c(Nc3cccn(C)c3=O)nn(-c3ccc(OC(F)(F)F)cc3)c(=O)c2C1", "note": "[Example 158, 6-Ethyl-1-[(1-methyl-2-oxo-3-pyridyl)amino]-3-[4-(trifluoromethoxy)phenyl]-7,8-dihydro-5H-pyrido[3,4-d]pyridazin-4-one]", "IC50": 105}, {"smiles": "CC(C)N1CCc2c(Nc3cccn(C)c3=O)nn(-c3ccc(OC(F)(F)F)cc3)c(=O)c2C1", "note": "[Example 159, 6-Isopropyl-1-[(1-methyl-2-oxo-3-pyridyl)amino]-3-[4-(trifluoromethoxy)phenyl]-7,8-dihydro-5H-pyrido[3,4-d]pyridazin-4-one]", "IC50": 186}, {"smiles": "CNC(=O)N1CCc2c(c(Nc3cccn(C)c3=O)nn(-c3ccc(OC(F)(F)F)cc3)c2=O)C1", "note": "[Example 160, N-Methyl-4-[(1-methyl-2-oxo-3-pyridyl)amino]-1-oxo-2-[4-(trifluoromethoxy)phenyl]-7,8-dihydro-5H-pyrido[3,4-d]pyridazine-6-carboxamide]", "IC50": 86}, {"smiles": "CNC(=O)N1CCc2c(Nc3cccn(C)c3=O)nn(-c3ccc(OC(F)(F)F)cc3)c(=O)c2C1", "note": "[Example 161, N-Methyl-1-[(1-methyl-2-oxo-3-pyridyl)amino]-4-oxo-3-[4-(trifluoromethoxy)phenyl]-7,8-dihydro-5H-pyrido[3,4-d]pyridazine-6-carboxamide]", "IC50": 112}, {"smiles": "Cn1cccc(Nc2nn(-c3ccc(C(C)(C)O)cc3)c(=O)c3ccccc23)c1=O", "note": "[Example 162, 2-[4-(1-Hydroxy-1-methyl-ethyl)phenyl]-4-[(1-methyl-2-oxo-3-pyridyl)amino]phthalazin-1-one]", "IC50": 1400}, {"smiles": "O=c1c(Nc2nn(-c3ccc(OC(F)(F)F)cc3)c(=O)c3ccccc23)cccn1CCO", "note": "[Example 163, 4-[[1-(2-Hydroxyethyl)-2-oxo-3-pyridyl]amino]-2-[4-(trifluoromethoxy)phenyl]phthalazin-1-one]", "IC50": 62}, {"smiles": "Cn1cccc(Nc2nn(-c3ccc(OC(F)(F)F)cc3)c(=O)c3c2CCC(O)C3)c1=O", "note": "(stereo not drawn) [Example 164, 7-Hydroxy-4-[(1-methyl-2-oxo-3-pyridyl)amino]-2-[4-(trifluoromethoxy)phenyl]-5,6,7,8-tetrahydrophthalazin-1-one]", "IC50": 46}, {"smiles": "Cn1cccc(Nc2nn(-c3ccc(OC(F)(F)F)cc3)c(=O)c3c2CC(O)CC3)c1=O", "note": "(stereo not drawn) [Example 165, 6-hydroxy-4-[(1-methyl-2-oxo-3-pyridyl)amino]-2-[4-(trifluoromethoxy)phenyl]-5,6,7,8-tetrahydrophthalazin-1-one]", "IC50": 24}, {"smiles": "CC(O)(CN)Cn1cccc(Nc2nn(-c3ccc(OC(F)(F)F)cc3)c(=O)c3c2CCC3)c1=O", "note": "(stereo not drawn) [Example 166, 1-[[1-(3-Amino-2-hydroxy-2-methyl-propyl)-2-oxo-3-pyridyl]amino]-3-[4-(trifluoromethoxy)phenyl]-6,7-dihydro-5H-cyclopenta[d]pyridazin-4-one]", "IC50": 107}, {"smiles": "O=C(Cn1cccc(Nc2nn(-c3ccc(OC(F)(F)F)cc3)c(=O)c3c2CCC3)c1=O)N1CCNCC1", "note": "[Example 167, 1-[[2-Oxo-1-(2-oxo-2-piperazin-1-yl-ethyl)-3-pyridyl]amino]-3-[4-(trifluoromethoxy)phenyl]-6,7-dihydro-5H-cyclopenta[d]pyridazin-4-one]", "IC50": 148}, {"smiles": "O=c1c(Nc2nn(-c3ccc(OC(F)(F)F)cc3)c(=O)c3c2CCC3)cccn1CCNC1COC1", "note": "[Example 168, 1-[[1-[2-(Oxetan-3-ylamino)ethyl]-2-oxo-3-pyridyl]amino]-3-[4-(trifluoromethoxy)phenyl]-6,7-dihydro-5H-cyclopenta[d]pyridazin-4-one]", "IC50": 24}, {"smiles": "O=c1c(Nc2nn(-c3ccc(OC(F)(F)F)cc3)c(=O)c3c2CCC3)cncn1CCN1CC(O)C1", "note": "[Example 169, 1-[[1-[2-(3-Hydroxyazetidin-1-yl)ethyl]-6-oxo-pyrimidin-5-yl]amino]-3-[4-(trifluoromethoxy)phenyl]-6,7-dihydro-5H-cyclopenta[d]pyridazin-4-one]", "IC50": 307}, {"smiles": "N[C@H]1CO[C@H](Cn2cccc(Nc3nn(-c4ccc(OC(F)(F)F)cc4)c(=O)c4c3CCC4)c2=O)OC1", "note": "[Example 170, trans-1-[[1-[(5-Amino-1,3-dioxan-2-yl)methyl]-2-oxo-3-pyridyl]amino]-3-[4-(trifluoromethoxy)phenyl]-6,7-dihydro-5H-cyclopenta[d]pyridazin-4-one]", "IC50": 83}, {"smiles": "Cc1cc(OC(F)(F)F)ccc1-n1nc(Nc2cccn(C)c2=O)c2c(c1=O)CCC2", "note": "[Example 171, 1-[(1-Methyl-2-oxo-3-pyridyl)amino]-3-[2-methyl-4-(trifluoromethoxy)phenyl]-6,7-dihydro-5H-cyclopenta[d]pyridazin-4-one]", "IC50": 6830}, {"smiles": "COc1ccc(-n2nc(Nc3cccn(C)c3=O)c3c(c2=O)CCC3)cc1OC", "note": "[Example 172, 3-(3,4-Dimethoxyphenyl)-1-[(1-methyl-2-oxo-3-pyridyl)amino]-6,7-dihydro-5H-cyclopenta[d]pyridazin-4-one]", "IC50": 3480}, {"smiles": "COc1cc(-n2nc(Nc3cccn(C)c3=O)c3c(c2=O)CCC3)ccc1C(F)(F)F", "note": "[Example 173, 3-[3-Methoxy-4-(trifluoromethyl)phenyl]-1-[(1-methyl-2-oxo-3-pyridyl)amino]-6,7-dihydro-5H-cyclopenta[d]pyridazin-4-one]", "IC50": 74600}, {"smiles": "CNC(=O)c1cc(Nc2nn(-c3ccc(OC(F)(F)F)cc3)c(=O)c3c2CCCC3)c(=O)n(C)c1", "note": "[Example 174, N,1-Dimethyl-6-oxo-5-[[4-oxo-3-[4-(trifluoromethoxy)phenyl]-5,6,7,8-tetrahydrophthalazin-1-yl]amino]pyridine-3-carboxamide]", "IC50": 14600}, {"smiles": "CNC(=O)c1cc(Nc2nn(-c3ccc(OC(F)(F)F)cc3)c(=O)c3ccccc23)c(=O)n(C)c1", "note": "[Example 175, N,1-Dimethyl-6-oxo-5-[[4-oxo-3-[4-(trifluoromethoxy)phenyl]phthalazin-1-yl]amino]pyridine-3-carboxamide]", "IC50": 74400}, {"smiles": "Cn1cc(C(F)(F)F)cc(Nc2nn(-c3ccc(OC(F)(F)F)cc3)c(=O)c3ccccc23)c1=O", "note": "[Example 176, 4-[[1-methyl-2-oxo-5-(trifluoromethyl)-3-pyridyl]amino]-2-[4-(trifluoromethoxy)phenyl]phthalazin-1-one]", "IC50": 80500}]}]}
